From patent publication US12257264B2, “Combination therapy for HIV with adenosine derivative and capsid inhibitors” (Brii Biosciences, Inc., priority 2021, dated 2025) come the findings set out here.

Several values for one entry are separate records, joined by “and”; a condition that tells them apart may be missing. Equal entries are not always repeated.

Data set [1] is described as follows: Liver S9 stability and conversion to EFdA. The format is in vitro ADME, human. The note with it: for half-life at 1 µM: human liver S9, 37° C. As to the method:
Intermediate solution: Dilute 5 μL of compounds or controls (7-ethoxycoumarin) from stock solution (10 mM) with 495 μL MeOH (Conc.: 100 μM, 1% DMSO, 99% MeOH). Stop solution: Cold ACN (including 100 ng/mL Tolbutamide and Labetalol as internal standard). Add 2 μL test compound or control working solution/well to all plates (T0, T5, T10, T20, T30, T60, NCF60) except matrix blank. Add 600 μL/well stop solution (cold in 4° C., including 100 ng/mL Tolbutamide/100 ng/mL Labetalol) to terminate the TO plate, then put it on ice. Dispense 840 μL/well S9 solution to 96-well plate as reservoir according to plate map. Then add 100 μL/well to every plate by Apricot. Incubate S9 solution and compound at 37° C. for about 10 min except NCF60 and TO. After adding S9 solution and 98 μLPB buffer to NCF60, incubate at 37° C. without pre-warming, start timer 1. After 60 min, add 600 μL/well stop solution to terminate the reaction. After pre-warming, dispense 760 μL/well cofactor solution to 96-well plate as reservoir according to plate map. Then add 98 μL/well to every plate by Apricot to start reaction. Incubate at 37° C., start timer 2, Add 600 μL/well stop solution (cold in 4° C., including 100 ng/mL Tolbutamide and Labetalol) to terminate the reaction. Samples are centrifuged at 4000 rpm for 20 min. While centrifuging, load 8×new 96-well plate with 300 μL HPLC water, then transfer 100 μL supernatant, mix with water for LC/MS/MS, transferred to Bioanalytical Services for LC-MS/MS analysis. Use equation of first order kinetics to calculate t1/2 and CL: Equation of first order kinetics: […]

Data set [2] is described as follows: Plasma stability and conversion to EFdA. The note with it: for half-life at 2 µM: human, plasma, pH 7.4. As to the method:
The pooled frozen plasma was thawed in a water bath at 37° C. prior to experiment. Plasma was centrifuged at 4000 rpm for 5 min and the clots were removed if any. The pH will be adjusted to 7.4±0.1 if required.
Preparation of test compounds and positive control (propantheline bromide): 1 mM intermediate solution was prepared by diluting 10 μL of the stock solution with 90 μL MeOH; 1 mM intermediate of positive control Propantheline was prepared by diluting 10 μL of the stock solution with 90 μL ultrapure water. 100 μM dosing solution was prepared by diluting 20 μL of the intermediate solution (1 mM) with 180 μL MeOH. 98 μL of blank plasma was spiked with 2 μL of dosing solution (100 μM) to achieve 2 μM of the final concentration in duplicate and samples were incubated at 37° C. in a water bath. At each time point (0, 10, 30, 60 and 120 min), […] of stop solution (0.1% FA in MeOH containing 200 ng/mL tolbutamide and 200 ng/mL Labetalol) was added to precipitate protein and mixed thoroughly. Centrifuged sample plates at 4,000 rpm for 10 min. An aliquot of supernatant (100 μL) was transferred from each well to another plates.
Data analysis: The % remaining of test compound after incubation in plasma was calculated using following equation: % Remaining=100×(PAR at appointed incubation time/PAR at T0 time) where PAR is the peak area ratio of analyte versus internal standard (IS) (LC/MS/MS mobile phase condition: 0.1% Formic Acid in Water/0.1% Formic Acid in Acetonitrile. The appointed incubation time points are TO (0 min), Tn (n=0, 10, 30, 60, 120 min). Liver S9 Stability

Data set [3] is described as follows: Plasma exposures following oral administration to beagle dogs. The conditions noted are these: EFdA PO 5 mg/kg.

As for `C#C[C@]1(COC(=O)NC(C)C)O[C@@H](n2cnc3c(N)nc(F)nc32)C[C@@H]1O` [Formula 2-A, ((2R,3S,5R)-5-(6-amino-2-fluoro-9H-purin-9-yl)-2-ethynyl-3-hydroxytetrahydrofuran-2-yl)methyl isopropylcarbamate], in data set [1], the “Stability in Human Liver S9 Formation of EFdA” value is reported as “No” and the half-life at 1 µM lay within 50 to 200 min. Besides, in data set [2], the “Stability in Human Plasma Formation of EFdA” value is “No” and the half-life at 2 µM was > 200 min.
`C#C[C@]1(CO)O[C@@H](n2cnc3c(NC(=O)OC(C)C)nc(F)nc32)C[C@@H]1O` [Formula 3-A, isopropyl (9-((2R,4S,5R)-5-ethynyl-4-hydroxy-5-(hydroxymethyl)tetrahydrofuran-2-yl)-2-fluoro-9H-purin-6-yl)carbamate]: in data set [1], the “Stability in Human Liver S9 Formation of EFdA” value is recorded as “No” and the half-life at 1 µM was 50 to 200 min. For the same compound, in data set [2], the “Stability in Human Plasma Formation of EFdA” value is reported as “No” and the half-life at 2 µM is > 200 min.
`C#C[C@]1(COC(=O)OCc2oc(=O)oc2C)O[C@@H](n2cnc3c(N)nc(F)nc32)C[C@@H]1OC(=O)OCc1oc(=O)oc1C` [Formula 4-C, ((2R,3S,5R)-5-(6-amino-2-fluoro-9H-purin-9-yl)-2-ethynyl-3-((((5-methyl-2-oxo-1,3-dioxol-4-yl)methoxy)carbonyl)oxy)tetrahydrofuran-2-yl)methyl ((5-methyl-2-oxo-1,3-dioxol-4-yl)methyl) carbonate]: in data set [1], the “Conversion to the target drug (EFdA) in liver S9 assay” value is “converted to the target drug efficiently”, the “Stability in Human Liver S9 Formation of EFdA” value is “Yes” and the half-life at 1 µM is < 50 min. For the same compound, in data set [2], the “Conversion to the target drug (EFdA) in human plasma assay” value is given as “converted to the target drug efficiently”, the “Stability in Human Plasma Formation of EFdA” value is “Yes” and the half-life at 2 µM was < 50 min.
Regarding `C#C[C@]1(COC(=O)NC)O[C@@H](n2cnc3c(N)nc(F)nc32)C[C@@H]1O` [Formula 5-A, ((2R,3S,5R)-5-(6-amino-2-fluoro-9H-purin-9-yl)-2-ethynyl-3-hydroxytetrahydrofuran-2-yl)methyl methylcarbamate], in data set [1], the “Stability in Human Liver S9 Formation of EFdA” value is reported as “No” and the half-life at 1 µM fell in the range of 50 to 200 min. Further, in data set [2], the “Stability in Human Plasma Formation of EFdA” value is “No” and the half-life at 2 µM was > 200 min.
Consider `C#C[C@]1(CO)O[C@@H](n2cnc3c(NCc4oc(=O)oc4C)nc(F)nc32)C[C@@H]1O` [Formula 6-A, 4-(((9-((2R,4S,5R)-5-ethynyl-4-hydroxy-5-(hydroxymethyl)tetrahydrofuran-2-yl)-2-fluoro-9H-purin-6-yl)amino)methyl)-5-methyl-1,3-dioxol-2-one], for which, in data set [1], the “Conversion to the target drug (EFdA) in liver S9 assay” value is on record as “converted to the target drug efficiently”, the “Stability in Human Liver S9 Formation of EFdA” value is reported as “Yes” and the half-life at 1 µM is < 50 min. In data set [2], the “Stability in Human Plasma Formation of EFdA” value was “No” and the half-life at 2 µM was < 50 min.
Turning to `C#C[C@]1(COC(=O)NCCN(C)Cc2oc(=O)oc2C)O[C@@H](n2cnc3c(N)nc(F)nc32)C[C@@H]1O` [Formula 7-A, ((2R,3S,5R)-5-(6-amino-2-fluoro-9H-purin-9-yl)-2-ethynyl-3-hydroxytetrahydrofuran-2-yl)methyl (2-(methyl((5-methyl-2-oxo-1,3-dioxol-4-yl)methyl)amino)ethyl)carbamate], in data set [1], the “Stability in Human Liver S9 Formation of EFdA” value was “No” and the half-life at 1 µM is < 50 min. In data set [2], the “Stability in Human Plasma Formation of EFdA” value is on record as “No” and the half-life at 2 µM fell in the range of 50 to 200 min.
For `C#C[C@]1(CO)O[C@@H](n2cnc3c(N)nc(F)nc32)C[C@@H]1O` [Formula T-1A, (2R,3S,5R)-5-(6-amino-2-fluoro-9H-purin-9-yl)-2-ethynyl-2-(hydroxymethyl)tetrahydrofuran-3-ol, reference compound], the “EFdA Concentrations in Dog Plasma” value is 333 ng/mL and 276 ng/mL in data set [3] (0.250 hrs, individual animals, 5 mg/kg); 299 ng/mL and 280 ng/mL in data set [3] (0.500 hrs, individual animals, 5 mg/kg); 353 ng/mL and 361 ng/mL in data set [3] (1.00 hrs, individual animals, 5 mg/kg); 212 ng/mL and 143 ng/mL in data set [3] (2.00 hrs, individual animals, 5 mg/kg); 12.6 ng/mL and 17.9 ng/mL and 6.30 ng/mL in data set [3] (4.00 hrs, individual animals, 5 mg/kg); “BQL” in data set [3] (6.00 hrs, individual animals). Also, the “EFdA Concentrations in Dog Plasma” value is “BQL” in data set [3] (8.00 hrs, individual animals); “BQL” in data set [3] (12.0 hrs, individual animals); “BQL” in data set [3] (24.0 hrs, individual animals). The concentration at 0.25 h in data set [3] (male, beagle, dog, in vivo, po, 5 mg/kg, EFdA Concentrations in Dog Plasma, 0.250 hrs, Mean) stood at 355 ng/mL; in data set [3] (male, beagle, dog, in vivo, po, 5 mg/kg, EFdA Concentrations in Dog Plasma, 0.250 hrs, individual animals) it was 456 ng/mL. The concentration at 0.5 h was 323 ng/mL in data set [3] (male, beagle, dog, in vivo, po, 5 mg/kg, EFdA Concentrations in Dog Plasma, 0.500 hrs, Mean) and 391 ng/mL in data set [3] (male, beagle, dog, in vivo, po, 5 mg/kg, EFdA Concentrations in Dog Plasma, 0.500 hrs, individual animals). Moreover, the concentration at 1 h stood at 361 ng/mL in data set [3] (male, beagle, dog, in vivo, po, 5 mg/kg, EFdA Concentrations in Dog Plasma, 1.00 hrs, Mean) and 369 ng/mL in data set [3] (male, beagle, dog, in vivo, po, 5 mg/kg, EFdA Concentrations in Dog Plasma, 1.00 hrs, individual animals). Further, the concentration at 2 h in data set [3] (male, beagle, dog, in vivo, po, 5 mg/kg, EFdA Concentrations in Dog Plasma, 2.00 hrs, Mean) worked out at 189 ng/mL; in data set [3] (male, beagle, dog, in vivo, po, 5 mg/kg, EFdA Concentrations in Dog Plasma, 2.00 hrs, individual animals) it was 211 ng/mL. For the same compound, in data set [3] (male, beagle, dog, in vivo, po, 5 mg/kg, EFdA Concentrations in Dog Plasma, 4.00 hrs, Mean), the concentration at 4 h was 12.3 ng/mL.
